Molecules are shown by their SMILES. Read-outs that look alike come from different tables or passages of the source.

The target in assay [1] is T1, GBA2 (Homo sapiens, UniProt Q9HCG7).
T1 sequence (Q9HCG7 1-927): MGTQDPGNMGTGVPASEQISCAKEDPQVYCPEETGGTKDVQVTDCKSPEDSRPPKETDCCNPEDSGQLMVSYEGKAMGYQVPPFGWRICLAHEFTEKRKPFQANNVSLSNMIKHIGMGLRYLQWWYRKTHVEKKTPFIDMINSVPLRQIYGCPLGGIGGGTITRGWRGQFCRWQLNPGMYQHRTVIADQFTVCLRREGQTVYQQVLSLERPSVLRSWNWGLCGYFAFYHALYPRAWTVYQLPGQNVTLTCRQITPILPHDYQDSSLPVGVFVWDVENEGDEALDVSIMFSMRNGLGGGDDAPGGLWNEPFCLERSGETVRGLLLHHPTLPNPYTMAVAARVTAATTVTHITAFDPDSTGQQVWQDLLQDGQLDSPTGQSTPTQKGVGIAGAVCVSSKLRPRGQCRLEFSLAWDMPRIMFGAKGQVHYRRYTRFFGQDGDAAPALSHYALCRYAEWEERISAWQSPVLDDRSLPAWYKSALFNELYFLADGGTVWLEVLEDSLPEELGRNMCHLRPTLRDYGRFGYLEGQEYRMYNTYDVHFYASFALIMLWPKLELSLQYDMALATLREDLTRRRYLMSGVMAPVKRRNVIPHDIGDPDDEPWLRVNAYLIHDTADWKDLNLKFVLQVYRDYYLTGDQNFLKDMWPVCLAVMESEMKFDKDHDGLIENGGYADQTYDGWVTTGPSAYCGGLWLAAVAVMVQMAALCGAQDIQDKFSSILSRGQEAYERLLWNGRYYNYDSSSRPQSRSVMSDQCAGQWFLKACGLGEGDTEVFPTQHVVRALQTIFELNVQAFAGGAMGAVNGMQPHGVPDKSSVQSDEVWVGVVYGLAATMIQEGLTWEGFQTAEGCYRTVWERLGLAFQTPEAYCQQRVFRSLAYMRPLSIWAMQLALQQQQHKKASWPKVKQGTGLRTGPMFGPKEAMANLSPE
Put plainly: Determination of IC50 values for inhibition of GBA2 in cell lysate. In kind it is biochemical. More on the design: host or cells: HEK293T (lentiviral transduction, puromycin selection); used as cellular homogenate. The procedure, abridged:
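Homogenate of HEK293T cells stably overexpressing human GBA2 (0.083 mg/mL final), pretreated with 20 μM GCase inhibitor, preincubated 5 min at 37 °C with compound, then reacted 20 min with 250 μM 4-methylumbelliferyl-β-D-glucopyranoside at pH 5.5 (citrate-phosphate, 1% C10E6). Fluorescence read at 365/450 nm after alkaline stop; IC50 from log-inhibitor curve fit.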

Assay [2] deals with T1, GBA2. Put plainly: Binding specificity (selectivity) for GBA2 over other enzymes. Format: biochemical. Particulars: compared to a suitable reference compound, e.g. NB-DNJ (miglustat) or AMP-DNM. An excerpt: In some embodiments, one or more of the compounds according to the invention may specifically bind a GBA2. In alternative embodiments, one or more of the compounds according to the invention may specifically bind the active site of a GBA2. […] In alternative embodiments, one or more of the compounds according to the invention may specifically bind the human non-lysosomal glucosylceramidase (GBA2) over the human lysosomal glucosylceramidase (GCase) and/or the human cytosolic glucosylceramidase (GBA3). In alternative embodiments, one or more of the compounds according to the invention may specifically bind the human non-lysosomal glucosylceramidase (GBA2) over the human glucosylceramide synthase (GCS). In alternative embodiments, one or more of the compounds according to the invention may specifically bind the human non-lysosomal glucosylceramidase (GBA2) over an intestinal alpha-glucosidase, where the intestinal alpha-glucosidase may be a sucrase-isomaltase or a maltase-glucoamylase.

Setting [3] is: cellular homogenate of HEK293T cells overexpressing human GBA2, 250 μM 4-methylumbelliferone-β-D glucopyranoside, pH 5.5, 37° C., GCase inhibitor present, read-out: GBA2 IC50.

As for `C[C@@H]1[C@@H](O)[C@H](O)[C@@H](O)CN1CCc1c(F)cc(C2CC2)cc1F` [Example 53, (2R,3R,4R,5S)-1-(4-cyclopropyl-2,6-difluorophenethyl)-2-methylpiperidine-3,4,5-triol], on GBA2 [1], the IC50 is less than 100 nM. Besides, on GBA2 [2], the “binding specificity (IC50 or Ki of other molecule / GBA2)” value is “enhanced binding specificity”.

As for `C[C@@H]1[C@@H](O)[C@H](O)[C@@H](O)CN1CCc1c(F)cc(C2CCOCC2)cc1F` [Example 54, (2R,3R,4R,5S)-1-(2,6-difluoro-4-(tetrahydro-2H-pyran-4-yl)phenethyl)-2-methylpiperidine-3,4,5-triol], the IC50 at GBA2 [1] (setting [3]) is less than 100 nM. The “binding specificity (IC50 or Ki of other molecule / GBA2)” value on GBA2 [2] is listed as “enhanced binding specificity”.

Turning to `C[C@@H]1[C@@H](O)[C@H](O)[C@@H](O)CN1CCc1c(F)cc(C(F)(F)F)cc1F` [Example 55, (2R,3R,4R,5S)-1-(2,6-difluoro-4-(trifluoromethyl)phenethyl)-2-methylpiperidine-3,4,5-triol], the half-maximal inhibitory concentration (IC50) on GBA2 [1] was 100 to 1000 nM. For the same compound, the “binding specificity (IC50 or Ki of other molecule / GBA2)” value at GBA2 [2] is “enhanced binding specificity”.

As to `C[C@@H]1[C@@H](O)[C@H](O)[C@@H](O)CN1CCc1c(F)cc(N2CCCC2)cc1F` [Example 56, (2R,3R,4R,5S)-1-(2,6-difluoro-4-(pyrrolidin-1-yl)phenethyl)-2-methylpiperidine-3,4,5-triol], on GBA2 [1] (setting [3]), the half-maximal inhibitory concentration (IC50) was less than 100 nM. Moreover, at GBA2 [2], the “binding specificity (IC50 or Ki of other molecule / GBA2)” value is reported as “enhanced binding specificity”.

In the case of `C[C@@H]1[C@@H](O)[C@H](O)[C@@H](O)CN1CCc1c(F)cc(N2CCCCC2)cc1F` [Example 57, (2R,3R,4R,5S)-1-(2,6-difluoro-4-(piperidin-1-yl)phenethyl)-2-methylpiperidine-3,4,5-triol], on GBA2 [1] (setting [3]), the IC50 was less than 100 nM. The “binding specificity (IC50 or Ki of other molecule / GBA2)” value on GBA2 [2] is listed as “enhanced binding specificity”.

For `C[C@@H]1[C@@H](O)[C@H](O)[C@@H](O)CN1CCc1c(F)cc(N2CCOCC2)cc1F` [Example 58, (2R,3R,4R,5S)-1-(2,6-difluoro-4-morpholinophenethyl)-2-methylpiperidine-3,4,5-triol], the IC50 at GBA2 [1] (setting [3]) was less than 100 nM. For the same compound, at GBA2 [2], the “binding specificity (IC50 or Ki of other molecule / GBA2)” value is “enhanced binding specificity”.

For the compound `CCCCOc1cc(F)c(CCN2C[C@H](O)[C@@H](O)[C@H](O)[C@H]2C)c(F)c1` [Example 59, (2R,3R,4R,5S)-1-(4-butoxy-2,6-difluorophenethyl)-2-methylpiperidine-3,4,5-triol], the IC50 on GBA2 [1] was less than 100 nM. For the same compound, the “binding specificity (IC50 or Ki of other molecule / GBA2)” value on GBA2 [2] is given as “enhanced binding specificity”.

For the compound `C[C@@H]1[C@@H](O)[C@H](O)[C@@H](O)CN1CCc1c(F)cc(OCC2CC2)cc1F` [Example 60, (2R,3R,4R,5S)-1-(4-(cyclopropylmethoxy)-2,6-difluorophenethyl)-2-methylpiperidine-3,4,5-triol], the IC50 at GBA2 [1] was less than 100 nM. For the same compound, the “binding specificity (IC50 or Ki of other molecule / GBA2)” value at GBA2 [2] was “enhanced binding specificity”.

With `C[C@@H]1[C@@H](O)[C@H](O)[C@@H](O)CN1CCc1cc2c(cc1F)OCO2` [Example 71, (2R,3R,4R,5S)-1-(2-(6-fluorobenzo[d][1,3]dioxol-5-yl)ethyl)-2-methylpiperidine-3,4,5-triol], the IC50 on GBA2 [1] was less than 100 nM. The “binding specificity (IC50 or Ki of other molecule / GBA2)” value at GBA2 [2] was “enhanced binding specificity”.

In the case of `C[C@@H]1[C@@H](O)[C@H](O)[C@@H](O)CN1CCc1ccc2c(c1)OCCO2` [Example 73, (2R,3R,4R,5S)-1-(2-(2,3-dihydrobenzo[b][1,4]dioxin-6-yl)ethyl)-2-methylpiperidine-3,4,5-triol], the half-maximal inhibitory concentration (IC50) at GBA2 [1] was less than 100 nM. Besides, the “binding specificity (IC50 or Ki of other molecule / GBA2)” value on GBA2 [2] was “enhanced binding specificity”.

For the compound `Cc1ccccc1N1CC[C@H](CN2C[C@H](O)[C@@H](O)[C@H](O)[C@H]2C)C1` [Example 114, (2R,3R,4R,5S)-2-methyl-1-(((R)-1-(o-tolyl)pyrrolidin-3-yl)methyl)piperidine-3,4,5-triol], on GBA2 [1] (setting [3]), the IC50 was less than 100 nM. Also, the “binding specificity (IC50 or Ki of other molecule / GBA2)” value on GBA2 [2] is “enhanced binding specificity”.

Turning to `C[C@@H]1[C@@H](O)[C@H](O)[C@@H](O)CN1C[C@H]1CCN(c2ccccc2C(F)(F)F)C1` [Example 115, (2R,3R,4R,5S)-2-methyl-1-(((R)-1-(2-(trifluoromethyl)phenyl)pyrrolidin-3-yl)methyl)piperidine-3,4,5-triol], at GBA2 [1] (setting [3]), the concentration for half-maximal inhibition (IC50) is less than 100 nM. The “binding specificity (IC50 or Ki of other molecule / GBA2)” value at GBA2 [2] is listed as “enhanced binding specificity”.

In the case of `C[C@@H]1[C@@H](O)[C@H](O)[C@@H](O)CN1C[C@H]1CCN(c2ccccc2F)C1` [Example 116, (2R,3R,4R,5S)-1-(((R)-1-(2-fluorophenyl)pyrrolidin-3-yl)methyl)-2-methylpiperidine-3,4,5-triol], the 50% inhibitory concentration (IC50) on GBA2 [1] (setting [3]) was less than 100 nM. Also, the “binding specificity (IC50 or Ki of other molecule / GBA2)” value at GBA2 [2] was “enhanced binding specificity”.

For the compound `C[C@@H]1[C@@H](O)[C@H](O)[C@@H](O)CN1C[C@H]1CCN(c2cccc(F)c2)C1` [Example 117, (2R,3R,4R,5S)-1-(((R)-1-(3-fluorophenyl)pyrrolidin-3-yl)methyl)-2-methylpiperidine-3,4,5-triol], on GBA2 [1] (setting [3]), the half-maximal inhibitory concentration (IC50) was less than 100 nM. For the same compound, the “binding specificity (IC50 or Ki of other molecule / GBA2)” value at GBA2 [2] is “enhanced binding specificity”.

As to `C[C@@H]1[C@@H](O)[C@H](O)[C@@H](O)CN1C[C@H]1CCN(c2ccccc2OC(F)(F)F)C1` [Example 118, (2R,3R,4R,5S)-2-methyl-1-(((R)-1-(2-(trifluoromethoxy)phenyl)pyrrolidin-3-yl)methyl)piperidine-3,4,5-triol], the IC50 on GBA2 [1] (setting [3]) was less than 100 nM. Besides, the “binding specificity (IC50 or Ki of other molecule / GBA2)” value on GBA2 [2] is “enhanced binding specificity”.

Regarding `C[C@@H]1[C@@H](O)[C@H](O)[C@@H](O)CN1C[C@H]1CCN(c2cccc(C(F)(F)F)n2)C1` [Example 119, (2R,3R,4R,5S)-2-methyl-1-(((R)-1-(6-(trifluoromethyl)pyridin-2-yl)pyrrolidin-3-yl)methyl)piperidine-3,4,5-triol], at GBA2 [1] (setting [3]), the 50% inhibitory concentration (IC50) was less than 100 nM. Besides, the “binding specificity (IC50 or Ki of other molecule / GBA2)” value on GBA2 [2] is “enhanced binding specificity”.

On to `C[C@@H]1[C@@H](O)[C@H](O)[C@@H](O)CN1C[C@H]1CCN(c2ncccc2C(F)(F)F)C1` [Example 120, (2R,3R,4R,5S)-2-methyl-1-(((R)-1-(3-(trifluoromethyl)pyridin-2-yl)pyrrolidin-3-yl)methyl)piperidine-3,4,5-triol], for which the IC50 at GBA2 [1] (setting [3]) is less than 100 nM. Moreover, on GBA2 [2], the “binding specificity (IC50 or Ki of other molecule / GBA2)” value is “enhanced binding specificity”.

Take `C[C@@H]1[C@@H](O)[C@H](O)[C@@H](O)CN1C[C@H]1CCN(c2cccc3scnc23)C1` [Example 129, (2R,3R,4R,5S)-1-(((R)-1-(benzo[d]thiazol-4-yl)pyrrolidin-3-yl)methyl)-2-methylpiperidine-3,4,5-triol]: the IC50 on GBA2 [1] (setting [3]) was less than 100 nM. Also, the “binding specificity (IC50 or Ki of other molecule / GBA2)” value on GBA2 [2] is “enhanced binding specificity”.

`C[C@@H]1[C@@H](O)[C@H](O)[C@@H](O)CN1C[C@@H]1CCN(c2ccccc2C(F)(F)F)C1` [Example 131, (2R,3R,4R,5S)-2-methyl-1-(((S)-1-(2-(trifluoromethyl)phenyl)pyrrolidin-3-yl)methyl)piperidine-3,4,5-triol]: the IC50 on GBA2 [1] (setting [3]) is less than 100 nM. Besides, at GBA2 [2], the “binding specificity (IC50 or Ki of other molecule / GBA2)” value is listed as “enhanced binding specificity”.

In the case of `Cc1ccccc1N1CCC[C@H](CN2C[C@H](O)[C@@H](O)[C@H](O)[C@H]2C)C1` [Example 136, (2R,3R,4R,5S)-2-methyl-1-(((R)-1-(o-tolyl)piperidin-3-yl)methyl)piperidine-3,4,5-triol], the IC50 at GBA2 [1] (setting [3]) is less than 100 nM. In addition, the “binding specificity (IC50 or Ki of other molecule / GBA2)” value at GBA2 [2] was “enhanced binding specificity”.
